Consider ten compounds from US4259235A, “Tricyclic nitrogenous compounds having string plant growth regulating properties” (BASF Aktiengesellschaft, priority 1977, dated 1981).

The term inhibition denotes the share of the control response that was lost under treatment.

For one data set, the system named is Lolium mult. Kind of data set: Herbicidal action, pre- and postemergence application in the greenhouse. Conditions: Lolium, post-emergence, read-out: % damage. Format: in vivo. The procedure:
(§1) Plastic flowerpots having a volume of 300 cm^3 were filled with a sandy loam and the test plants placed therein (either as seed, as vegetatively reproduced species, or as potted plants, e.g., vines). For preemergence treatment, the active ingredients were suspended or emulsified in water as vehicle and sprayed onto the surface of the soil immediately after sowing by means of finely distributing nozzles. The potted vines were treated by spraying them with the correspondingly diluted liquor. For postemergence treatment, the agents were, as stated above, sprayed in water onto the leaves of the test plants, some liquor also falling onto the soil. In some special cases, solid active ingredients were first dissolved in dimethylformamide and then applied in a total liquor amount of 400 liters of water per hectare. For the postemergence treatment, the plants were first grown to a height of from 3 to 10 cm before being treated. With grasses, the first growth was cut, and the new growth treated 2 to 3 days after cutting. The temperature requirements of the plants were taken into account by placing them in cooler or warmer sections of the greenhouse. The experiments were run for from 4 to 6 weeks, during which time the plants were tended and their reaction to the various treatments was assessed.
(§2) The application rates are given in kg/ha of active ingredient, regardless of the method of application and the amount of water used.
(§3) A 0 to 100 scale was used for the evaluation, 0 denoting normal emergence or no damage (or no inhibition), and 100 denoting non-emergence or complete destruction of the plants. A distinction should be made in the influence on growth between desired changes without any appreciable disadvantageous phytotoxic effects (e.g., purely growth-regulating effects) and those of a phytotoxic herbicical character.

The next data set has as its system Mentha piper. The description is as above. Format: in vivo. Conditions: post-emergence; 3.0 kg/ha POST; read-out: % damage. As for the experimental part:
as §1, §2, §3

The test system of the next data set is Ipom. spp. Described as above. Format: in vivo, Ipomoea spp. Conditions: Ipomoea, post-emergence; 3.0 kg/ha POST; read-out: % damage. As for the experimental part:
as §1, §2, §3

The subject of a further data set is Galium apar. Described as above. The data set is classed as in vivo, Galium aparine. Conditions: post-emergence, 3.0 kg/ha POST, read-out: % damage. As for the experimental part:
as §1, §2, §3

The next data set relates to Sinapis alba. The data set is described as above. Conditions: post-emergence, 3.0 kg/ha PRE, read-out: % damage. Format: in vivo. As for the experimental part: as §1, §2, §3
The test system of a further data set is Arachys hypogaea. Kind of data set: Shoot growth, postemergence treatment in the greenhouse (table 25). The data set is classed as in vivo. The procedure: as §1, §2, §3
The test system of another data set is Oryza sativa. The data set is described as above. The data set is classed as in vivo. The procedure: as §1, §2, §3
For a further data set, the system named is Poa pratensis. The data set is described as above. Format: in vivo. As for the experimental part:
as §1, §2, §3

In another data set the test system is potted vines. Briefly: Tolerance by potted vines in greenhouse; spray application. The data set is classed as in vivo. The procedure:
as §1, §2, §3

The subject of a further data set is Cynodon dactylon. Kind of data set: Shoot growth, postemergence treatment in the greenhouse (table 26). The data set is classed as in vivo. Conditions: from seed. The procedure: as §1, §2, §3
Data set [1] has as its system Euphorbia geniculata. The data set is described as above. Format: in vivo. As for the experimental part:
as §1, §2, §3

In the next data set the test system is Hordeum vulgare. Described as above. Format: in vivo. As for the experimental part: as §1, §2, §3
Data set [2] deals with Euphorbia geniculata. Briefly: Inhibition of shoot growth by growth regulators, pre- and postemergence (table 27). The data set is classed as in vivo. Conditions: Euphorbia heterophylla, post-emergence, read-out: shoot growth inhibition (%). As for the experimental part:
as §1, §2, §3

For a further data set, the system named is Medicago sativa. Described as above. Format: in vivo. Conditions: post-emergence, read-out: shoot growth inhibition (%). As for the experimental part:
as §1, §2, §3

Another data set relates to Arachys hypog. Briefly: Shoot inhibition, pre- and postemergence treatment (table 28). The data set is classed as in vivo, Arachys hypogaea. Conditions: post-emergence, read-out: % shoot inhibition. The procedure:
as §1, §2, §3

In another data set the test system is Glycine max. The description is as above. Format: in vivo. Conditions: post-emergence, read-out: % shoot inhibition. The procedure: as §1, §2, §3
The next data set deals with Euphorbia genic. The data set is described as above. Format: in vivo, Euphorbia geniculata. Conditions: post-emergence, read-out: % shoot inhibition. As for the experimental part:
as §1, §2, §3

The test system of another data set is Cynodon dactyl. The data set is described as above. The data set is classed as in vivo, Cynodon dactylon. Conditions: post-emergence, from seed, read-out: % shoot inhibition. As for the experimental part:
as §1, §2, §3

Where two headings read alike, the source gives them in different places.

For `ClC1C2CC(C3N=NC23)C1Nc1nccs1` (centres unmarked), the pest or weed control at 3000 g/ha in the data set on Lolium mult. (3.0 kg/ha POST) is 100%; with Mentha piper., 100%; with Ipom. spp., 80%; in the data set on Galium apar. it was 80%.
Consider `FC(F)(F)c1cccc(NC2C(Br)C3CC2C2N=NC32)c1` (centres unmarked), for which the pest or weed control at 3000 g/ha turned out to be 100% with Lolium mult. (3.0 kg/ha POST); 100% in the data set on Lolium mult. (3.0 kg/ha PRE); 95% with Mentha piper.; 95% in the data set with Sinapis alba; 100% in the data set on Ipom. spp.; 90% in the data set with Galium apar..
In the case of `C[N+](C)(C)CCCl` [[ClCH2CH2N⊕(CH3)3]⊖, reference compound], the Shoot length in the data set on Arachys hypogaea (1.0 kg/ha) is recorded as 16 cm; in the data set with Arachys hypogaea (2.0 kg/ha), 16 cm; in the data set on Arachys hypogaea (4.0 kg/ha), 16 cm; in the data set with Oryza sativa (1.0 kg/ha), 20 cm; in the data set on Oryza sativa (2.0 kg/ha), 20 cm; in the data set on Oryza sativa (4.0 kg/ha) it was 20 cm. For the same compound, the Shoot length in the data set on Poa pratensis (1.0 kg/ha) was 4 cm; with Poa pratensis (2.0 kg/ha), 4 cm; with Poa pratensis (4.0 kg/ha), 3 cm.
As to `BrC1C(Br)C2CC1C1N=NC21` (centres unmarked) [drawing 427], in the data set on potted vines (4.0 and 8.0 kg/ha), the “Potted vines - leaf damage” value is reported as “none”. The “Change in shoot growth” value was 14.7 cm with potted vines (4.0 kg/ha) and 13.3 cm in the data set on potted vines (8.0 kg/ha).
As to `C1C2C3N=NC3C1C1OC21` (centres unmarked) [drawing 433], the Shoot length in the data set with Arachys hypogaea (1.0 kg/ha) is reported as 10 cm; in the data set on Arachys hypogaea (2.0 kg/ha), 10 cm; in the data set on Arachys hypogaea (4.0 kg/ha), 10 cm; in the data set with Oryza sativa (1.0 kg/ha), 16 cm; with Oryza sativa (2.0 kg/ha) it was 16 cm; in the data set with Oryza sativa (4.0 kg/ha) it was 16 cm. The Shoot length with Poa pratensis (1.0 kg/ha), with Poa pratensis (2.0 kg/ha) and with Poa pratensis (4.0 kg/ha) was 2 cm in each case. The “Leaf scorch (footnote x)” value in the data set with Poa pratensis (1.0, 2.0 and 4.0 kg/ha) is “limited leaf scorch”.
With `CN(C)NC(=O)CCC(=O)O` [drawing 434], the Shoot length in the data set with Arachys hypogaea (1.0 kg/ha) stood at 12 cm; in the data set with Arachys hypogaea (2.0 kg/ha), 5 cm; with Arachys hypogaea (4.0 kg/ha), 5 cm; in the data set on Poa pratensis (1.0 kg/ha), 4 cm; in the data set on Poa pratensis (2.0 kg/ha), 4 cm; with Poa pratensis (4.0 kg/ha), 4 cm.
With `Clc1ccc(NC2C(Cl)C3CC2C2N=NC32)cc1` (centres unmarked) [drawing 435], the Shoot length in the data set with Cynodon dactylon (1.0 kg/ha) is 5 cm; in the data set with Cynodon dactylon (2.0 kg/ha), 5 cm; with Euphorbia geniculata [1] (0.5 kg/ha) it was 9 cm; in the data set with Euphorbia geniculata [1] (1.0 kg/ha) it was 9 cm; in the data set with Euphorbia geniculata [1] (2.0 kg/ha), 9 cm; in the data set on Hordeum vulgare (0.5 kg/ha), 12.5 cm. Besides, the Shoot length with Hordeum vulgare (1.0 kg/ha) and in the data set on Hordeum vulgare (2.0 kg/ha) was 12 cm throughout.
As for `c1ccc(C2=NOC3C4CC(C5N=NC45)C23)cc1` (centres unmarked) [drawing 437], the inhibition at 500 g/ha in the data set with Euphorbia geniculata [2] (0.5 kg/ha PRE) was 33%. In addition, the inhibition at 1000 g/ha with Euphorbia geniculata [2] (1.0 kg/ha PRE) amounted to 40%. For the same compound, the inhibition at 2000 g/ha in the data set with Euphorbia geniculata [2] (2.0 kg/ha POST) came out at 30%; in the data set on Medicago sativa (2.0 kg/ha POST), 20%. In addition, the inhibition at 4000 g/ha turned out to be 30% in the data set on Euphorbia geniculata [2] (4.0 kg/ha POST) and 20% in the data set with Medicago sativa (4.0 kg/ha POST).
`CN(C)NC(=O)CCC(=O)O` [drawing 439]: the inhibition at 1000 g/ha with Arachys hypog. (1.0 kg/ha POST) came out at 30%; with Arachys hypog. (1.0 kg/ha PRE), 50%; in the data set on Glycine max (1.0 kg/ha PRE) it was 0%; with Euphorbia genic. (1.0 kg/ha PRE), 0%; with Cynodon dactyl. (1.0 kg/ha POST), 20%. The inhibition at 2000 g/ha in the data set with Arachys hypog. (2.0 kg/ha POST) was determined as 30%; with Arachys hypog. (2.0 kg/ha PRE), 50%; in the data set on Glycine max (2.0 kg/ha PRE) it was 0%; in the data set on Euphorbia genic. (2.0 kg/ha PRE), 0%; in the data set on Cynodon dactyl. (2.0 kg/ha POST), 20%.
On to `C1C2C3N=NC3C1C1OC21` (centres unmarked) [drawing 445], for which the pest or weed control at 3000 g/ha with Lolium mult. (3.0 kg/ha POST) was 100%; with Lolium mult. (3.0 kg/ha PRE), 95%; in the data set on Mentha piper. it was 100%; in the data set with Sinapis alba, 90%; in the data set with Ipom. spp., 100%; with Galium apar. it was 60%.
